Laboratory results published in ChEMBL document CHEMBL3217481, “2-Amino-5-arylbenzoxazole derivatives as potent inhibitors of fatty acid amide hydrolase (FAAH)” (Medchemcomm, 2012).

Assays:
[1] = molecular target: T1, Fatty-acid amide hydrolase 1 (Homo sapiens, UniProt O00519); experiment: Inhibition of human FAAH expressed in HEK293 cells using arachadonyl 7-amino 4-methyl coumarin amide as substrate by fluorimetric assay; type: cell-based
T1 sequence (O00519 whole entry): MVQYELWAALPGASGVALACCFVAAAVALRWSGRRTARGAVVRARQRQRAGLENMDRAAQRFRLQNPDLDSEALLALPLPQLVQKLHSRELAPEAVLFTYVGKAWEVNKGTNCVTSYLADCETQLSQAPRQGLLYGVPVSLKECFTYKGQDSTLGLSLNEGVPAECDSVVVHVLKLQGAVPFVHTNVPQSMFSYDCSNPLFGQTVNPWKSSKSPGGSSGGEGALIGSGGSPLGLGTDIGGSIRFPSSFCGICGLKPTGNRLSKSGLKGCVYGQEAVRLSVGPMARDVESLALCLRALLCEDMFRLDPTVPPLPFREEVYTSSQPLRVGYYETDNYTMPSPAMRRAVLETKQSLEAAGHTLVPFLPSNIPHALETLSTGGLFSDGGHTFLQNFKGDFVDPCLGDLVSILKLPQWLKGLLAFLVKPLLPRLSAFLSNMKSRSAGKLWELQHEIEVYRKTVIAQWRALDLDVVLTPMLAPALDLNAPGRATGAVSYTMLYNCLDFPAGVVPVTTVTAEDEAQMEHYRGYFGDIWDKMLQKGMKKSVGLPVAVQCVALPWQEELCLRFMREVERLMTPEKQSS

[2] = Inhibition of guinea pig brain FAAH; parameters: species or system Cavia porcellus
[3] = molecular target: T1, Fatty-acid amide hydrolase 1; experiment: Reversible inhibition of full length human FAAH assessed as inhibition of 3[H]-anandamide hydrolysis preincubated for 3 hrs measured after 15 mins post substrate addition by cell-based assay
[4] = Inhibition of rabbit brain FAAH; parameters: species or system Oryctolagus cuniculus
[5] = molecular target: T2, Fatty-acid amide hydrolase 1 (Rattus norvegicus, UniProt P97612); experiment: Inhibition of rat FAAH expressed in HEK293 cells using arachadonyl 7-amino 4-methyl coumarin amide as substrate by fluorimetric assay; type: cell-based
T2 sequence (P97612 whole entry): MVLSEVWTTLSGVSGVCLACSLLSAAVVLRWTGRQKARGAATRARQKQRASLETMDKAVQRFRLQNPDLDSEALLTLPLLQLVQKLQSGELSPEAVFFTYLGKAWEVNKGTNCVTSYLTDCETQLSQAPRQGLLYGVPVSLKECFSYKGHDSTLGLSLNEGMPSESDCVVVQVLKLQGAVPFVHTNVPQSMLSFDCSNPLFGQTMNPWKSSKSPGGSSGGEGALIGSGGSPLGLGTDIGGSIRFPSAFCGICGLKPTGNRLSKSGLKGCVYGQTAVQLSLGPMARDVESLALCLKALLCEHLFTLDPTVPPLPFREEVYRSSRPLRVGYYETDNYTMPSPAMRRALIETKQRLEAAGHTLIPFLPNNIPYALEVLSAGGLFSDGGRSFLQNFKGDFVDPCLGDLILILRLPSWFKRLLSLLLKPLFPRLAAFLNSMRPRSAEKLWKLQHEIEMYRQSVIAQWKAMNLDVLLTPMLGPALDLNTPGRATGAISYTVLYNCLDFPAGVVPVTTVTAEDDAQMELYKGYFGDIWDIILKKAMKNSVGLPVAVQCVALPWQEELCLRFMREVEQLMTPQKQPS

Row | SMILES | IC50 [1] [nM] | also measured
1 | Cn1ccc2cc(-c3ccc4oc(Nc5cccnc5)nc4c3)ccc21 | 226 | 
2 | Cn1ccc2cc(-c3ccc4oc(N5Cc6cccnc6C5)nc4c3)ccc21 | 211 | 
3 | Cn1ccc2cc(-c3ccc4oc(N5Cc6ccncc6C5)nc4c3)ccc21 | 121 | 
4 | Cn1ccc2cc(-c3ccc4nc(N5Cc6ccccc6C5)oc4c3)ccc21 | > 1000 | 
5 | Cn1ccc2cc(-c3cccc4nc(N5Cc6ccccc6C5)oc34)ccc21 | > 1000 | 
6 | NC(=O)c1cccc(-c2ccc3oc(NC4CCCCC4)nc3c2)c1 | > 1000 | 
7 | c1ccc(-c2ccc3oc(NC4CCCCC4)nc3c2)cc1 | > 1000 | 
8 | COc1ccc(-c2ccc3oc(NC4CCCCC4)nc3c2)cc1C | 228 | 
9 | Cn1ccc2cc(-c3ccc4oc(NC5CCCCC5)nc4c3)ccc21 | 911 | 
10 | c1cc2cc(-c3ccc4oc(NC5CCCCC5)nc4c3)cnc2[nH]1 | > 1000 | 
11 | c1cnc2ccc(-c3ccc4oc(NC5CCCCC5)nc4c3)cc2c1 | > 1000 | 
12 | CCn1ccc2cc(-c3ccc4oc(NC5CCCCC5)nc4c3)ccc21 | 207 | 
13 | c1cc2c(ccn2C2COC2)cc1-c1ccc2oc(NC3CCCCC3)nc2c1 | 579 | 
14 | NC(=O)Cn1ccc2cc(-c3ccc4oc(NC5CCCCC5)nc4c3)ccc21 | 214 | 
15 | Cn1ccc2cc(-c3ccc4oc(Cc5ccccc5)nc4c3)ccc21 | 488 | 
16 | CN(c1ccccc1)c1nc2cc(-c3ccc4c(ccn4C)c3)ccc2o1 | 68 | 
17 | Cn1ccc2cc(-c3ccc4oc(Nc5ccc(F)cc5)nc4c3)ccc21 | 99 | 
18 | COc1ccc(Nc2nc3cc(-c4ccc5c(ccn5C)c4)ccc3o2)cc1 | 280 | 
19 | Cn1ccc2cc(-c3ccc4oc(Nc5ccccn5)nc4c3)ccc21 | 186 | 
20 | Cn1ccc2cc(-c3ccc4oc(Nc5ccncc5)nc4c3)ccc21 | > 1000 | 
21 | CNc1nc2cc(-c3ccc4c(ccn4C)c3)ccc2o1 | > 1000 | 
22 | Cn1ccc2cc(-c3ccc4oc(N5CCCC5)nc4c3)ccc21 | 674 | 
23 | Cn1ccc2cc(-c3ccc4oc(N5CCOCC5)nc4c3)ccc21 | 784 | 
24 | C[C@@H]1CN(c2nc3cc(-c4ccc5c(ccn5C)c4)ccc3o2)C[C@H](C)O1 | 168 | 
25 | Cn1ccc2cc(-c3ccc4oc(N5CCNCC5)nc4c3)ccc21 | > 1000 | 
26 | Cn1ccc2cc(-c3ccc4oc(N5CCN(c6ccccc6)CC5)nc4c3)ccc21 | 63 | 
27 | CCCCCCCC/C=C\CCCCCCCC(=O)C(F)(F)F |  | IC50 [3]: 187 nM
28 | O=C(Nc1ccccc1)N1CCC(Cc2cnc3ccccc3c2)CC1 |  | IC50 [2]: 66 nM; IC50 [4]: 0.8 nM; IC50 [5]: 17 nM
29 | NC(=O)c1cccc(-c2cccc(OC(=O)NC3CCCCC3)c2)c1 [URB-597] |  | IC50 [2]: 26 nM; IC50 [4]: 0.8 nM

More lines, main results first:

Row | IC50 [1] [nM] | SMILES | also measured
30 | 42 | Cn1ccc2cc(-c3ccc4oc(N5CCn6cccc6C5)nc4c3)ccc21 | 
31 | 28 | COc1cccc(-c2ccc3oc(N4Cc5ccccc5C4)nc3c2)c1 | 
32 | 10 | COCc1ccc(-c2ccc3oc(N4Cc5ccccc5C4)nc3c2)cc1 | 
33 | 13 | COCc1ccc(-c2ccc3oc(N4Cc5ccccc5C4)nc3c2)cc1OC | 
34 | 10 | COc1cc(-c2ccc3oc(N4Cc5ccccc5C4)nc3c2)ccn1 | 
35 | 14 | c1ccc2c(c1)CN(c1nc3cc(-c4ccc5nccn5c4)ccc3o1)C2 | 
36 | 1.2 | Cn1ncc2cc(-c3ccc4oc(N5Cc6ccccc6C5)nc4c3)ccc21 | 
37 | 3.2 | Cn1ncc2c(-c3ccc4oc(N5Cc6ccccc6C5)nc4c3)cccc21 | 
38 | 18 | CCn1ccc2cc(-c3ccc4oc(Nc5ccccc5)nc4c3)ccc21 | IC50 [2]: 424 nM; IC50 [3]: 92 nM; IC50 [4]: 98 nM; IC50 [5]: 586 nM
39 | 54 | N#Cc1cc(-c2ccc3oc(NC4CCCCC4)nc3c2)ccc1O | 
40 | 61 | Cn1ncc2cc(-c3ccc4oc(NC5CCCCC5)nc4c3)ccc21 | 
41 | 52 | Cn1ncc2c(-c3ccc4oc(NC5CCCCC5)nc4c3)cccc21 | 
42 | 48 | Cn1ccc2cc(-c3ccc4oc(Nc5ccccc5)nc4c3)ccc21 | 
43 | 55 | Cn1ccc2cc(-c3ccc4oc(N5CCc6ccccc6C5)nc4c3)ccc21 | 
44 | 12 | Cn1ccc2cc(-c3ccc4oc(N5Cc6ccccc6C5)nc4c3)ccc21 | IC50 [2]: 423 nM; IC50 [3]: 95 nM; IC50 [4]: 42 nM; IC50 [5]: 413 nM
